Reference: US20250082760A1 (priority 2020, published 2025)
Structures can show the parent of a compound that is named as a salt.

Legend:
[1] = test system: righting reflex in mice; experiment: mouse righting reflex test (sedative and hypnotic effects); assay type: in vivo, Kunming mice
Method: Experimental animals, SPF Kunming mice, male, 20-30 g, Laboratory Animal Center of Lanzhou University (certificate number: SCXK (Gan) 2018-0002), reared in separate cages, temperature, 22±1° C., humidity, 50%, automatic in the light-controlled 12 h/12 h light-dark cycle (light-on time 8:00 h, light-off time 20:00 h, light intensity ≈100 lux) environment, free food and activities, adapted to the experimental environment for 5 days.
Statistical analysis, the experimental data were analyzed by SPSS 19.0 statistical software, and all data were expressed as Means±SEM.

[2] = test system: convulsions in mice induced by electrical stimulation; experiment: anticonvulsant effect on mice induced by electrical stimulation; assay type: in vivo; conditions: compared with blank group
Method: (1) Divide 40 mice (20♀20) into 5 groups at random, with 8 mice (4♀4) in each group, and label No. 1 to No. 8 with picric acid respectively; (2) All mice were tested according to the order of groups and labels electrical stimulation, the initial voltage was 40V, the voltage was increased by 2.5V each time, the time interval between two electrical stimulations for the same mouse was 20 min, the threshold voltage value of convulsion and the time from convulsion to complete recovery were recorded, and the dead mice were discarded, qualified mice were screened; (3) After screening, 7 mice (2♀5) in the 40 mice could not recover after convulsions and died, and the remaining 33 qualified mice […]; (4) From standby 7 mice were screened out as a supplement, and the number of the dead mice in step (2) was marked with picric acid and added to the corresponding groups, so that a total of 40 (20♀20) qualified mice in 5 groups were finally obtained., all mice were weighed and recorded.
Positive drug: sodium valproate (specification 0.2 g), take 1 tablet in a mortar, add 20 ml of 0.5% CMC-Na solution while grinding, to a suspended state, set EP tube for use; test drug (compound 5): Dissolve in distilled water to 5, 10, and 20 mg/ml solutions, respectively, and set EP tubes for later use.
Electrical stimulation was performed 1.5 hours after the last administration, and each mouse was given the threshold voltage measured before to observe the experimental phenomenon and record whether there was convulsions and death occurred.
The first group was the blank control group, which was given 0.4 ml/20 g of 0.5% CMC-Na by gavage; the second group was the positive drug control group, which was given sodium valproate 200 mg/kg by gavage; the third group was the test drug the low-dose group, which was given 100 mg/kg of compound 5 by gavage; the fourth group was the test drug medium-dose group, which was given 200 mg/kg of compound 5 by gavage; the fifth group was the test drug high-dose group, which was given 400 mg/kg of compound 5 by gavage.
1.5 h after the last administration, electrical stimulation was performed according to the threshold voltage measured before each mouse, the experimental phenomenon was observed, and the occurrence of convulsions and death were recorded. If convulsion occurs, record the time of complete recovery; if no convulsion occurs, continue to increase the voltage with a gradient of 2.5V to measure the current threshold voltage value and recovery time.
Strictly follow the 5 periods of convulsion in mice, namely, latency period, rigid flexion period, hindlimb extension period, clonic period and recovery period to judge whether the mice have convulsions after electrical stimulation, and the phenomenon of death can not be recovered after convulsions.

[3] = test system: nitroglycerin-induced migraine mouse model; experiment: nitroglycerin-induced migraine mouse model (hot plate, head scratching, body weight); assay type: in vivo, ICR mice; conditions: for hind feet licking time (hot plate) / total number of head scratching times: reference model group, day 5; for hind feet licking time (hot plate): 45 min after modeling, p<0.05
Method: 48 ICR mice weigt 18-22 g, half male and half female; purchased from Qinglongshan Animal Breeding Farm, Jiangning District, Nanjing City, certificate: SCXK (Su) 2017-0001; rearing conditions: room temperature 18-20° C., same sex rearing in separate cages, 12 hours of light, regular ventilation, conventional full-price solid feed feeding, bedding changed every two days; 48 mice were randomly divided into 6 groups (blank control group, model group, positive drug group, low-dose group of test drug, medium-dose group of test drug, high-dose group of test drug), 8 animals (4♀4) in each group, marked No. 1-8 with picric acid respectively.
Solvent: 0.5% CMC-Na aqueous solution; positive drug: flunarizine hydrochloride (sibelin) capsules (specification 5 mg), take the contents in a mortar, add 100 ml of 0.5% CMC-Na solution while grinding, placed in EP tubes for standby; Test drug (compound 5): dissolve into 5, 10, 20 mg/ml solutions with distilled water respectively, and placed in EP tubes for standby; Modeling drug (nitroglycerin): take 2 nitroglycerin tablets (specification 5 mg), crushed into powder, placed in EP tubes, added 500 μl of propylene glycol with a pipette and shaken well, standing still for 5 minutes, added 9.5 ml of normal saline, shaken well and standing still overnight, take the supernatant (containing nitroglycerin) 1 mg/ml) for use.
Except for the first group (blank control group), animals in other groups were subcutaneously injected with 10 mg/kg (0.2 ml/20 g) of nitroglycerin back-up solution 1 h after each administration (modeling once every other day on the 1st, 3rd, and 5th days).
The first group was the blank control group, which was given 0.5% CMC-Na 0.2 ml/20 g by gavage; the second group was the model group, which was given 0.5% CMC-Na by gavage; the third group was the positive drug group, which was given by gavage Flunarizine hydrochloride (sibilin) 1 mg/kg; the fourth group was the low-dose group of test drug, which was given 100 mg/kg of compound 5 by gavage; the fifth group was the medium-dose group of test drug, which was given 200 mg/kg of compound 5 by gavage; the sixth group was the high-dose group of test drug, which was given 400 mg/kg of compound 5 by gavage. Dosing every other day on days 1, 3, and 5.
In behavioral studies, mice scratching their heads for more than 5 times or scratching their faces with forelimbs for more than 5 times were identified as migraine-related behaviors caused by modeling, with a record of scratching their heads once; in the hot plate method, mice lifted their hind limbs and licked their hind feet as the observation indicator, record the time immediately.

[4] = intraperitoneal, compound 5 56 mg/kg, Pro 25 mg/kg, A1P1 24 and 25 mg/kg, Dia 5 mg/kg, n = 7, listed as compound 5, hydrochloride

SMILES: CC(C)c1cccc(C(C)C)c1OC(=O)CC1(CN(C)C)CCCCC1 [Compound 5, 2,6-diisopropylphenyl 2-(1-((dimethylamino)methyl)cyclohexyl)acetate hydrochloride]
- sedative effect ([1]; intraperitoneal 56 mg/kg, versus Pro and A1P1): better sedative effect
- Observation of activity and other phenomena ([1]; intraperitoneal, compound 5 56 mg/kg, Pro 25 mg/kg, A1P1 24 and 25 mg/kg, Dia 5 mg/kg, n = 7, hydrochloride): Reduced activity
- Disappearance time (latency of disappearance of the righting reflex) [1, 4]: did not disappear
- Observation of activity and other phenomena [1, 4]: significantly reduced
- anti-electrical convulsion ability (threshold voltage increase) ([2]; 100 mg/kg gavage, p>0.05): no significant effect
- anti-electrical convulsion ability (threshold voltage increase) ([2]; 200 mg/kg gavage, p>0.05): no significant effect
- anti-electrical convulsion ability (threshold voltage increase) ([2]; 400 mg/kg gavage, p<0.01): significantly improve
- weight gain of mice ([2]; sodium valproate 200 mg/kg, compound 5 100, 200, 400 mg/kg gavage, p>0.05): no difference
- alleviation of nitroglycerin-induced migraine in mice ([3]; by gavage on days 1, 3, 5, compound 5 100, 200, 400 mg/kg): effectively alleviate
- weight gain of mice ([3]; mouse, in vivo): no significant effect
- hind feet licking time (hot plate) ([3]; high dose 400 mg/kg gavage): significant difference
- total number of head scratching times ([3]; high dose 400 mg/kg gavage): significant difference (p<0.05)
- total number of head scratching times ([3]; low dose 100 mg/kg gavage): extremely significant (p<0.01)
- total number of head scratching times ([3]; medium dose 200 mg/kg gavage): extremely significant (p<0.01)
- hind feet licking time (hot plate) ([3]; middle dose 200 mg/kg gavage): significant difference
